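48-hour exposure; five concentrations; linearly interpolated endpoints. TGI: concentration producing complete growth inhibition.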

Holding throughout (test): NCI-60 cell line screen, 48 h
The subject of test [1] is RPMI-8226 leukemia.
In test [2] the test system is A498 renal.
Test [3] relates to MOLT-4 leukemia.
The subject of test [4] is MDA-MB-435.
Test [5] has as its system SNB-19 CNS.
In test [6] the test system is SN12C renal.
The subject of test [7] is HL-60(TB) leukemia.
For test [8], the system named is U251 CNS.
The test system of test [9] is TK-10 renal.
Test [10] deals with SW-620 colon.
Test [11] deals with OVCAR-3 ovarian.
Test [12] relates to NCI-H226 lung.
In test [13] the test system is PC-3 prostate.
In test [14] the test system is NCI-H23 lung.
Test [15] relates to LOX IMVI melanoma.
For test [16], the system named is HS 578T breast.
The subject of test [17] is KM12 colon.
In test [18] the test system is K-562 leukemia.
The subject of test [19] is SNB-75 CNS.
The test system of test [20] is OVCAR-5 ovarian.

As to `Cc1nc(-n2nc(-c3ccccc3)cc2-c2ccccc2)sc1C(=O)/C=C/c1ccc([N+](=O)[O-])cc1`, the TGI was 23.5 µM in test [1]; above 65.8 µM in test [2]; 51.5 µM in test [3]; 43.5 µM in [4]; above 100 µM in test [5]; above 76.4 µM in test [6]. The TGI in test [7] is 55.9 µM; in [8], above 47.6 µM; in test [9], above 66.8 µM; in test [10], above 71.2 µM; in test [11], 45.3 µM; in test [12] it was above 100 µM. The TGI in test [13] was above 100 µM; in test [14] it was above 54.9 µM; in [15], 52.5 µM; in test [16], above 100 µM; in test [17], 38.1 µM; in [18], above 70.6 µM. Moreover, the TGI is above 67 µM in test [19] and above 100 µM in [20].

With `COC(=O)c1sc2c(=O)c(C(=O)OC)c(C(=O)OC)sc2c(=O)c1C(=O)OC`, the TGI in test [1], in [2], in test [3], in test [4], in [5] and in test [6] was above 100 µM in each case. Moreover, the TGI in test [7], in test [8], in test [9], in [10], in test [11] and in test [12] was above 100 µM in each case. In addition, the TGI in [13], in test [14], in [15], in test [16], in test [17] and in test [18] was above 100 µM in each case. Further, the TGI in test [19] and in [20] was above 100 µM in each case.

In the case of `Nc1ncnc2c1ncn2[C@@H]1O[C@H](COP(=O)(O)OP(=O)(O)OC[C@H]2O[C@@H](OCCCO)[C@H](O)[C@@H]2O)[C@@H](O)[C@H]1O`, the TGI in [1], in test [2], in test [3], in [4], in test [5] and in test [6] was above 100 µM in each case. The TGI in [7], in [8], in test [9], in test [10], in [11] and in test [12] was above 100 µM throughout. Also, the TGI in test [13], in [14], in [15], in test [16], in test [17] and in [18] was above 100 µM each time. Also, the TGI in test [19] and in test [20] was above 100 µM throughout.

With `CC(C)=NOC(=O)OC[C@H]1O[C@@H](n2cnc3c(N)ncnc32)C(O)C1O` (stereo not given in full), the TGI in test [1], in test [2], in test [3], in test [4], in [5] and in test [6] was above 100 µM in each case. For the same compound, the TGI in test [7], in test [8], in test [9], in test [10], in [11] and in [12] was above 100 µM in each case. Also, the TGI in [13], in [14], in test [15], in [16], in [17] and in test [18] was above 100 µM each time. The TGI in test [19] and in test [20] was above 100 µM in each case.

Regarding `Cc1cccc2c(NCCN(C)C)c3cccc(C(=O)NCCN(C)C)c3nc12`, the TGI in test [1] is 0.21 µM; in [2], 4.06 µM; in [3], 0.102 µM; in test [4], 1.1 µM; in test [5] it was 11.2 µM; in [6], 1.69 µM. Also, the TGI in test [7] was determined as 0.637 µM; in test [8], 3.82 µM; in [9], 8.94 µM; in [10], 7.78 µM; in test [11], 5.54 µM; in test [12], 5.68 µM. In addition, the TGI is 6.73 µM in test [13]; 1.3 µM in test [14]; 1.76 µM in test [15]; 1.82 µM in test [16]; 1.04 µM in test [17]; 0.065 µM in test [18]. Further, the figures for the TGI in test [19] and in test [20] were 0.953 µM and 14.4 µM, respectively.

As to `N#Cc1sc2c(c1OC(=O)c1ccc(Cl)cc1Cl)c(=O)n(-c1ccccc1)c(=S)n2-c1ccccc1`, the TGI in test [1] is 60 µM; in [2], 61.2 µM; in test [3], 45.9 µM; in [4], 46.2 µM; in test [5], 60.6 µM; in [6] it was 57.8 µM. The TGI in [7] turned out to be 46.7 µM; in test [8], 75.8 µM; in [9], 92.5 µM; in test [10], 72.7 µM; in test [11], 76.3 µM; in test [12], 66.8 µM. In addition, the TGI in test [13] is above 100 µM; in [14] it was 50.8 µM; in test [15] it was 39.8 µM; in [16], 89.6 µM; in [17] it was 89.7 µM; in test [18], 68 µM. Moreover, the TGI in test [19] and in test [20] was above 100 µM in each case.

(Values after PubChem BioAssay (NCI).)
